Measured values: patent publication US7265103B2, “Substituted amino isoxazoline derivatives and their use as anti-depressants” (Janssen Pharmaceutica NV., priority 2002, dated 2007)

Columns and labels:
hα2A receptor = target: T1, hα2A receptor (Homo sapiens, UniProt P08913); experiment: Radioligand binding experiment for α2A-adrenergic receptor ([3H]-raulwolscine); conditions: CHO cell membranes with human α2A receptor, [3H]raulwolscine 1 nM; read-out: pIC50 α2A (converted)
T1 construct: expressed in transfected cells; host or cells: CHO cells
T1 sequence (P08913 1-465): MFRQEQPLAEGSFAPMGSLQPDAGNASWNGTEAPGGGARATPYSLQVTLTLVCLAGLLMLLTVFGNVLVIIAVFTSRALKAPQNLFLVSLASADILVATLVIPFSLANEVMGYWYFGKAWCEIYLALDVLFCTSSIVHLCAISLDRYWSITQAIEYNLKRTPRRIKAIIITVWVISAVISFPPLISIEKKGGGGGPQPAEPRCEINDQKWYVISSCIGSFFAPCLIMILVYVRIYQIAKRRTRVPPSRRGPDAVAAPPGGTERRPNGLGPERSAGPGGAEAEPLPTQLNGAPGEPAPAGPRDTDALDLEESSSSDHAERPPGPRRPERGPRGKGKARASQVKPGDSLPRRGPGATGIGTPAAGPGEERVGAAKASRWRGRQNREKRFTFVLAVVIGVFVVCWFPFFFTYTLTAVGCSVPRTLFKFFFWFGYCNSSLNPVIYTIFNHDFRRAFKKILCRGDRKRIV
Experimental: (§1) The interaction of the compounds of Formula (I) with hα2-receptors and h5-HT-transporters was assessed in in vitro radioligand binding experiments. In general, a low concentration of a radioligand with a high binding affinity for a particular receptor or transporter is incubated with a sample of a tissue preparation enriched in a particular receptor or transporter or with a preparation of cells expressing cloned human receptors in a buffered medium. During the incubation, the radioligand binds to the receptor or transporter. When equilibrium of binding is reached, the receptor bound radioactivity is separated from the non-bound radioactivity, and the receptor- or transporter-bound activity is counted. The interaction of the test compounds with the receptor is assessed in competition binding experiments. Various concentrations of the test compound are added to the incubation mixture containing the receptor- or transporter preparation and the radioligand. The test compound in proportion to its binding affinity and its concentration inhibits binding of the radioligand. The radioligand used for hα2A, hα2B and hα2C receptor binding was [^3H]-raulwolscine and for the h5-HT transporter was [^3H]paroxetine.
(§2) CHO cells, stabile transfected with human adrenergic-α2A-, -α2B or α2C receptor cDNA, were cultured in Dulbecco's Modified Eagle's Medium (DMEM)/Nutrient mixture Ham's F12 (ratio 1:1)(Gibco, Gent-Belgium) supplemented with 10% heat inactivated fetal calf serum (Life Technologies, Merelbeke-Belgium) and antibiotics (100 IU/ml penicillin G, 100 μg/ml streptomycin sulphate, 110 μg/ml pyruvic acid and 100 μg/ml L-glutamine). One day before collection, cells were induced with 5 mM sodiumbutyrate. Upon 80-90% of confluence, cells were scraped in phosphate buffered saline without Ca^2+ and Mg^2+ and collected by centrifugation at 1500×g for 10 min. The cells were homogenised in Tris-HCl 50 mM using an Ultraturrax homogenizer and centrifuged for 10 min at 23,500×g. The pellet was washed once by resuspension and rehomogenization and the final pellet was resuspended in Tris-HCl, divided in 1 ml aliquots and stored at −70° C.
(§3) Membranes were thawed and re-homogenized in incubation buffer (glycylglycine 25 mM, pH 8.0). In a total volume of 500 μl, 2-10 μg protein was incubated with [^3H]raulwolscine (NET-722) (New England Nuclear, USA) (1 nM final concentration) with or without competitor for 60 min at 25° C. followed by rapid filtration over GF/B filter using a Filtermatel 96 harvester (Packard, Meriden, Conn.). Filters were rinsed extensively with ice-cold rinsing buffer (Tris-HCl 50 mM pH 7.4). Filter-bound radioactivity was determined by scintillation counting in a Topcount (Packard, Meriden, Conn.) and results were expressed as counts per minute (cpm). Non-specific binding was determined in the presence of 1 μM oxymetazoline for hα2A- and hα2B receptors and 1 μM spiroxatrine for hα2C receptors.
(§4) Data from assays in the presence of compound were calculated as a percentage of total binding measured in the absence of test compound. Inhibition curves, plotting percent of total binding versus the log value of the concentration of the test compound, were automatically generated, and sigmoidal inhibition curves were fitted using non-linear regression. The pIC50 values of test compounds were derived from individual curves.

hα2C receptor = target: T2, hα2C receptor (Homo sapiens, UniProt P18825); experiment: Radioligand binding experiment for α2C-adrenergic receptor ([3H]-raulwolscine); conditions: CHO cell membranes with human α2C receptor, [3H]raulwolscine 1 nM; read-out: pIC50 α2C (converted)
T2 construct: expressed in transfected cells; host or cells: CHO cells
T2 sequence (P18825 1-462): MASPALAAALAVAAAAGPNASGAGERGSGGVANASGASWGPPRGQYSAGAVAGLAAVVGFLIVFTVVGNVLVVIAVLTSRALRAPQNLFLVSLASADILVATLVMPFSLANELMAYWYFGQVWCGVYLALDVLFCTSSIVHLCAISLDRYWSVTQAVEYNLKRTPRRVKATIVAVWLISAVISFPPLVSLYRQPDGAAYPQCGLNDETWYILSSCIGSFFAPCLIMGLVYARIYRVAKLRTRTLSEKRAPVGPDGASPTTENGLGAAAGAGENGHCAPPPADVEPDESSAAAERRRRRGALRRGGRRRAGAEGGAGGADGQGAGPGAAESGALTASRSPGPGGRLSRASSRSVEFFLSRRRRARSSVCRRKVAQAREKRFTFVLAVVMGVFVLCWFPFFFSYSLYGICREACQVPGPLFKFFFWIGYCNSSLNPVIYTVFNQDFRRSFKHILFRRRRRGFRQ
Experimental: as §1, §2, §3, §4

h5-HT transporter = target: T3, h5-HT transporter (Homo sapiens, UniProt P31645); experiment: Radioligand binding experiment for 5-HT transporter ([3H]paroxetine); conditions: human platelet membranes, [3H]paroxetine 0.5 nM
T3 construct: Human platelet membranes (Oceanix Biosciences Corporation, Hanover, Md., USA) were thawed; tissue Oceanix Biosciences Corporation; host or cells: human platelet membranes
T3 sequence (P31645 whole entry): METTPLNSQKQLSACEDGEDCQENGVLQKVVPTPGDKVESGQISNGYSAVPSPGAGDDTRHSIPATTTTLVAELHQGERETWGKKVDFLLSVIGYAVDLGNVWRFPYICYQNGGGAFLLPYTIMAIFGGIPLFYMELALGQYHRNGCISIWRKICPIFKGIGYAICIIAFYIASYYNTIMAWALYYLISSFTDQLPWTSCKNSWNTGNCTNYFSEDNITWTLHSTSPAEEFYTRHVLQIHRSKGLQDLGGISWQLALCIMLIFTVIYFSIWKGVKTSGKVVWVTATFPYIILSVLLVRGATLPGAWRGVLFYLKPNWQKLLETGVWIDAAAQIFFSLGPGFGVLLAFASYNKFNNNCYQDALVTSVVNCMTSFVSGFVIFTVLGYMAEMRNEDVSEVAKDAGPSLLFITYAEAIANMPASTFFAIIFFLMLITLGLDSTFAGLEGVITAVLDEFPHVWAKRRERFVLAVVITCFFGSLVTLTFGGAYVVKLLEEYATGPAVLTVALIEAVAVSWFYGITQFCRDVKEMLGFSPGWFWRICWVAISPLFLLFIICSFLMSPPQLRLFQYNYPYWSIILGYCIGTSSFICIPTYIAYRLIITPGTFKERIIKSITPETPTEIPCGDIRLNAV
Experimental: as §1
Human platelet membranes (Oceanix Biosciences Corporation, Hanover, Md., USA) were thawed, diluted in buffer (Tris-HCl 50 mM, 120 mM NaCl and 5 mM KCl) and quickly (max 3 s) homogenised with an Ultraturrax homogenizer. In a total volume of 250 μL, 50-100 μg protein was incubated with [^3H]paroxetine (NET-869) (New England Nuclear, USA) (0.5 nM final concentration) with or without competitor for 60 min at 25° C. Incubation was stopped by rapid filtration of the incubation mixture over GF/B filters, pre-wetted with 0.1% polyethyleneamine, using a Filtermatel 96 harvester (Packard, Meriden, Conn.). Filters were rinsed extensively with ice-cold buffer and radioactivity on the filters was counted in a Topcount liquid scintillation counter (Packard, Meriden, Conn.). Data were expressed as cpm. Imipramine (at 1 μM final concentration) was used to determine the non-specific binding.
as §4

Compound | IC50 (hα2A receptor) | IC50 (hα2C receptor) | IC50 (h5-HT transporter)
CC(=Cc1ccccc1)CN1CCN(CC2ON=C3c4ccc(N(C)CCO)cc4OCC32)CC1 (single isomer, unassigned) [Compound 33] | 631 nM | 39.8 nM | 12.6 nM
CC(=Cc1ccccc1)CN1CCN(CC2ON=C3c4ccc(N(C)CCO)cc4OCC32)CC1 (single isomer, unassigned) [Compound 34] | 2 nM | 0.398 nM | 63.1 nM
C/C(=C\c1ccccc1)CN1CCN(CC2ON=C3c4ccc(N(C)CCN(C)C)cc4OCC32)CC1 (stereo not drawn) [Compound 1] | 1.26 nM | 1 nM | 6.31 nM
COc1cc2c(cc1N)OCC1C2=NOC1CN1CCN(C/C(C)=C/c2ccccc2)CC1 (stereo not drawn) [Compound 8] | 5.01 nM | 1.58 nM | 25.1 nM
COc1cc2c(cc1NC(C)=O)OCC1C2=NOC1CN1CCN(C/C(C)=C/c2ccccc2)CC1 (stereo not drawn) [Compound 10] | 3.98 nM | 1.26 nM | 63.1 nM
COc1cc2c(cc1N(C)CCN(C)C)OCC1C2=NOC1CN1CCN(C/C(C)=C/c2ccccc2)CC1 (stereo not drawn) [Compound 11] | 2 nM | 1.58 nM | 3.16 nM
CC(=O)N1CCOc2cc3c(cc21)OCC1C3=NOC1CN1CCN(C/C(C)=C/c2ccccc2)CC1 (stereo not drawn) [Compound 12] | 2 nM | 1 nM | 31.6 nM
C/C(=C\c1ccccc1)CN1CCN(CC2ON=C3c4cc5c(cc4OCC32)N(C)CCO5)CC1 (stereo not drawn) [Compound 14] | 15.8 nM | 5.01 nM | 31.6 nM
CCNC(=O)N1CCOc2cc3c(cc21)OCC1C3=NOC1CN1CCN(C/C(C)=C/c2ccccc2)CC1 (stereo not drawn) [Compound 16] | 7.94 nM | 0.794 nM | 7.94 nM
CNc1cc2c(cc1OC)C1=NOC(CN3CCN(CC(C)=Cc4cccc(F)c4)CC3)C1CO2 (stereo not drawn) [Compound 17] | 7.94 nM | 2 nM | 12.6 nM
CCNc1ccc2c(c1)OCC1C2=NOC1CN1CCN(CC(C)=Cc2ccccc2)CC1 (stereo not drawn) [Compound 18] | 6.31 nM | 1.26 nM | 50.1 nM
CC(=Cc1ccc(F)cc1)CN1CCN(CC2ON=C3c4ccc(N(C)CCN)cc4OCC32)CC1 (stereo not drawn) [Compound 19] | 12.6 nM | 2.51 nM | 10 nM
CNCCNc1ccc2c(c1)OCC1C2=NOC1CN1CCN(CC(C)=Cc2ccc(F)cc2)CC1 (stereo not drawn) [Compound 20] | 31.6 nM | 3.16 nM | 7.94 nM
CC(=Cc1cccc(F)c1)CN1CCN(CC2ON=C3c4ccc(N(C)CCN(C)C)cc4OCC32)CC1 (stereo not drawn) [Compound 22] | 1.58 nM | 1.26 nM | 1.58 nM
CC(=Cc1ccc(F)cc1)CN1CCN(CC2ON=C3c4ccc(N(C)CCN(C)C)cc4OCC32)CC1 (stereo not drawn) [Compound 23] | 10 nM | 2 nM | 5.01 nM
CCN(CC)CCN(C)c1ccc2c(c1)OCC1C2=NOC1CN1CCN(CC(C)=Cc2ccc(F)cc2)CC1 (stereo not drawn) [Compound 25] | 6.31 nM | 0.398 nM | 7.94 nM
COc1cc2c(cc1NCCN1CCCC1)OCC1C2=NOC1CN1CCN(CC(C)=Cc2cccc(F)c2)CC1 (stereo not drawn) [Compound 27] | 15.8 nM | 3.16 nM | 5.01 nM
COc1cc2c(cc1NCCN1CCCC1)OCC1C2=NOC1CN1CCN(CC(C)=Cc2ccc(F)cc2)CC1 (stereo not drawn) [Compound 29] | 15.8 nM | 1.58 nM | 3.16 nM
CC(=Cc1ccc(F)cc1)CN1CCN(CC2ON=C3c4ccc(NCCN5CCOCC5)cc4OCC32)CC1 (stereo not drawn) [Compound 30] | 50.1 nM | 3.98 nM | 10 nM
CC(=Cc1ccccc1)CN1CCN(CC2ON=C3c4ccc(N(C)CCO)cc4OCC32)CC1 (stereo not drawn) [Compound 31] | 1.26 nM | 1.26 nM | 25.1 nM
COc1cc2c(cc1N(C)CCO)OCC1C2=NOC1CN1CCN(CC(C)=Cc2ccccc2)CC1 (stereo not drawn) [Compound 32] | 3.98 nM | 0.794 nM | 20 nM
CC(=Cc1cccc(F)c1)CN1CCN(CC2ON=C3c4ccc(N(C)CCO)cc4OCC32)CC1 (stereo not drawn) [Compound 35] | 3.16 nM | 1.26 nM | 7.94 nM
